Test results published in US12251422B2, “Compositions and methods for treating neurological and other disorders” (Rush University Medical Center, priority 2018, dated 2025).

Columns and labels:
[1] = molecular target: T1, association between TLR2 and MyD88 (Mus musculus, UniProt Q9QUN7); assay: MyD88 immunoprecipitation / TLR2 western blot in BV-2 microglial cells; type: cell-based; settings: BV-2 cells, peptides preincubated 1 h, 1 μM fibrillar Aβ1-42 for 1 h, serum-free
T1 construct: disrupt the physical association between endogenous TLR2 and MyD88; endogenous in cells; host or cells: BV-2 microglial cells
T1 sequence (Q9QUN7 25-784): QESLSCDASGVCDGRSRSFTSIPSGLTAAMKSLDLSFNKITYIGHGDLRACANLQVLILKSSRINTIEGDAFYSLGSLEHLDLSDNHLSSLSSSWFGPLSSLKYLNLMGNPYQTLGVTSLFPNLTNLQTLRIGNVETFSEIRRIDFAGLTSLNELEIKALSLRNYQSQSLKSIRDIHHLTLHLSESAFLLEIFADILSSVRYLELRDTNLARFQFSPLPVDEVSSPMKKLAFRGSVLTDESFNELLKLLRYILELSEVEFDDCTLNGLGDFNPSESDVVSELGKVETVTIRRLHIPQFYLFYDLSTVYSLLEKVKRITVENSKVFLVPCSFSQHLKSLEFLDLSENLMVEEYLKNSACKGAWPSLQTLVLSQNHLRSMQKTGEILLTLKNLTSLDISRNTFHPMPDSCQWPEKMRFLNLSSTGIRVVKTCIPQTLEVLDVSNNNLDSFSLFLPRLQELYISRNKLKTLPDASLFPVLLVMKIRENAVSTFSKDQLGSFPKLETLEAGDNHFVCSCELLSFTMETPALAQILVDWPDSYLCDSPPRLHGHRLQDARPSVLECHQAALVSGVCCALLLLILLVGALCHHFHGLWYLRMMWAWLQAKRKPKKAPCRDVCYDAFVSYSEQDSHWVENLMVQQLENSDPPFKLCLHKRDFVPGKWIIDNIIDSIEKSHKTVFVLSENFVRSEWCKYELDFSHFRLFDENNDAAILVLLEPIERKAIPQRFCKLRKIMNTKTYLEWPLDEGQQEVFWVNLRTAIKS
Method: FIG. 3(A-L). Selective disruption of TLR2 and MyD88 interaction by wtTIDM. In silico analyses of interactions of wtTIDM with TLR1, TLR4, TLR5, TLR6, TLR7, and TLR9. A rigid body interaction analyses were performed in pydock in silico analysis tool. […] G) BV-2 microglial cells preincubated with WtTIDM and mTIDM peptides for 1 h were stimulated with 1 μM fibrillar Aβ1-42 under serum-free condition. After 1 h, cellular extracts were immunoprecipitated with anti-MyD88 antibody followed by western blot of immunoprecipitates for TLR2. As control, cellular extracts were immunoprecipitated with normal IgG. Input was also immunoblotted with TLR2 and MyD88. H) Bands were scanned and values (TLR2/Input) presented as relative to control (n=2 replicates/condition in 3 independent experiments). Results were analyzed by two-sample t-tests. I) BV-2 microglial cells preincubated with wtTIDM and mTIDM peptides for 1 h were stimulated with LPS under serum-free condition. After 1 h, cellular extracts were immunoprecipitated with anti-MyD88 antibody followed by western blot of immunoprecipitates for TLR4. As control, cellular extracts were immunoprecipitated with normal IgG. Input was also immunoblotted with TLR4 and My D88. […] Results were analyzed by two-sample t-tests. […] Results were analyzed by two-sample t-tests.

5×FAD Tg mice = assay: Novel object recognition test in 5×FAD Tg mice; type: in vivo, mouse; settings: vs untreated Tg or mTIDM-treated Tg mice
Text: FIG. 6 (A-N). Intranasal delivery of wtTIDM, but not mTIDM, peptide inhibits neuronal apoptosis in vivo in the hippocampus and improves memory and learning in Tg mice. […] After 30 d of treatment, mice were sacrificed and hippocampal sections were double-labeled for TUNEL & NeuN (A). […] Hippocampal extracts of all groups of mice (n=4) were immunoblotted for cleaved caspase 3 (D). Actin was run as loading control. E) Bands were scanned and values (cleaved caspase 3/Actin) are presented as relative to non-Tg control. […] Protein levels of PSD-95. NR2A and GluR1 were monitored in hippocampal extracts by Western blot (F). Bands were scanned and values (G, PSD-95/Actin; H, NR2A/Actin; I, GluR1/Actin) are presented as relative to non-Tg control. […] Mice were tested for Barnes maze (J, latency; K, number of errors made) and T maze (L, number of positive turns; M, number of negative turns). Short-term memory was also monitored by novel object recognition test, which is represented by discrimination index (N). Eight mice (n=8) were used in each group and results were analyzed by one-way ANOVA.
Novel object recognition task was performed to monitor the short term memory as described by others (58) and us (57). Briefly, during training, mice were placed in a square novel box (20 inches long by 8 inches high) surrounded with infrared sensor. […]

mice with CIA = assay: Collagen-induced arthritis (CIA) in DBA/1J mice; type: in vivo, mouse; settings: 1 mg/kg body wt/d i.p. from 29 dpi
Text: FIG. 7 (A-V). The wtTIDM, but not mTIDM, peptide protects mice from experimental allergic encephalomyelitis (EAE) and collagen-induced arthritis (CIA). […] Mice (n=6 per group in two independent experiments) were scored daily. […] On 22 dpi, general motor activities were monitored using the Ethovision XT 13.0 Open Field Activity System (Noldus) (B, heat-map images representing overall motor activities; C, distance travelled; D, rearing; E, velocity; F, acceleration) and rotorod (G). Foot print analysis (H, stride length; I, print length; J, sway length; K, toe spread) was also performed, L) CIA was induced in male DBA/1J mice by bovine type II collagen immunization and from 29 dpi, mice were treated with wtTIDM and mTIDM peptides (1 mg/kg body wt/d) via i.p. injection. Mice (n=6 per group in two independent experiments) were scored daily. […] On 60 dpi, general motor activities were monitored by Ethovision System (M, heat-map images representing overall motor activities; N, distance travelled; O, rearing; P, velocity), rotorod (Q) and grip strength (R). Foot print analysis (S, stride length; T, print length; U, sway length; V, toe spread) was also performed. Six mice (n=6 per group) were used in two independent experiments. ap<0.001 & bp<0.05 vs control; cp<0.001 & dp<0.05 vs EAE or CIA by two-sample t-tests.
FIG. 26 (A-D). Footprint analysis of mice with CIA after treatment with wtTIDM and mTIDM peptides. On the walking track, we applied white paper strips and obtained the footprints of mice of different groups (A, control; B, CIA; C, CIA+wtTIDM; D, CIA+mTIDM) on paper using black ink. A total of 30-40 steps for each group were determined. Four different footprint measurements (SL, PL, SWL, and TS) were calculated in centimeters from the recorded prints of mice. Six mice (n=6 per group) were used in two independent experiments.
Male DBA/1J mice (8-9 week old) were immunized intradermally at the base of the tail with 100 μg of bovine type II collagen emulsified in […] Freund's Adjuvant and M. tuberculosis H37RA. […]

CC[C@H](C)[C@H](NC(=O)[C@H](CCCCN)NC(=O)[C@@H](NC(=O)[C@H](CCC(N)=O)NC(=O)[C@H](CCCNC(=N)N)NC(=O)[C@@H](N)CC(=O)O)[C@@H](C)CC)C(=O)N[C@@H](Cc1c[nH]c2ccccc12)C(=O)N[C@@H](Cc1ccccc1)C(=O)N[C@@H](CCC(N)=O)C(=O)N[C@@H](CC(N)=O)C(=O)N[C@@H](CCCNC(=N)N)C(=O)N[C@@H](CCCNC(=N)N)C(=O)N[C@@H](CCSC)C(=O)N[C@@H](CCCCN)C(=O)N[C@@H](Cc1c[nH]c2ccccc12)C(=O)N[C@@H](CCCCN)C(=O)N[C@@H](CCCCN)C(=O)N1CCC[C@H]1C(=O)NCC(=O)N[C@@H](C)C(=O)N[C@@H](Cc1c[nH]cn1)C(=O)N[C@@H](CCC(N)=O)C(=O)N[C@@H](CCCCN)C(=O)O [wtTIDM, drqikiwfqnrrmkwkkPGAHQK]
inhibition of fibrillar Aβ1-42-increased association between TLR2 and MyD88 [1]: inhibited
short-term memory, novel object recognition (discrimination index) (5×FAD Tg mice): significant improvement
clinical symptoms of CIA (mice with CIA): decreased
footprint behavior in CIA mice (mice with CIA; 60 dpi): improved
locomotor activities in CIA mice (mice with CIA; 60 dpi): enhanced
